Assay results published in patent publication US20110138488A1, “DEFICIENCY IN THE HISTONE DEMETHYLASE JHDM2A RESULTS IN IMPAIRED ENERGY EXPENDITURE AND OBESITY” (priority 2008, published 2011).

Key:
PGC-1α promoter = conditions: control C2C12 cells, AICAR treatment
Procedure: Wild-type and Jhdm2a knock-down C2C12 myotubes with or without AICAR treatment were used for ChIP followed by qPCR. Antibodies against H3K9me1 and H3K9me2 were used in the ChIP assays. Results were normalized to input, and are shown as fold of enrichment relative to that in the wild-type C2C12 cells without AICAR treatment. *p<0.05.
To determine whether PGC-1α is a direct target of JHDM2A, ChIP assays were performed. Ctrl or Jhdm2a KD C2C12 myotubes with or without AICAR treatment were used for ChIP analysis with histone modification-specific antibodies and anti-JHDM2A as described previously (Okada, Nature 450, 119 (2007)).

primary myotubes = assay: AICAR-induced respiration (oxygen consumption) in primary myotubes; assay type: cell-based, mouse; conditions: wild-type (Jhdm2a+/+) primary myotubes, 500 μM AICAR for 16 hours
Procedure: Jhdm2a^+/+ and Jhdm2a^−/− primary myotubes were treated with 500 μM AICAR for 16 hours. Rates of oxygen consumption were normalized to cell counts. *p<0.05. The effect of Jhdm2a deficiency on energy expenditure was analyzed. Systemic energy expenditure includes basal metabolic rate, physical activity, and adaptive thermogenesis (Spiegelman, Cell 104, 531 (2001)). Metabolic studies were performed using TSE LabMaster calorimetry Module (TSE-System) in the Clinical Nutrition Research Unit at the University of North Carolina. For respiration measurements, cultured cells were resuspended in PBS. Oxygen consumption was measured using a Clarke-type electrode (Diamond General) at baseline, and after treatment with 10 μM isoproterenol (ISO) (Wu, Cell 98, 115 (1999)). For normalization of the respiration rates, an aliquot of the cells was lysed and protein concentration was measured. […] The decreased energy expenditure of the Jhdm2a KO mice was not a result of abnormal metabolic hormone secretion. […] Activation of AMPK signaling was determined by treating C2C12 myotubes with 800 μM AICAR (Sigma Aldrich) for 16 hours. […] To gain further support for the involvement of JHDM2A in AMPK-mediated mitochondrial function, the effect of Jhdm2a-deficiency on AMPK activation-mediated respiration in primary myotubes was measured.

Ucp1 enhancer = assay: ChIP analysis at the Ucp1 enhancer in HIB1B cells after ISO treatment; assay type: cell-based; conditions: control HIB1B cells
Description: The Jhdm2a knock-down-induced increase in H3K9me2 level could be partially rescued by overexpression of JHDM2A coupled with ISO treatment. *P<0.05.
Results are normalized to IgG, and are shown as the fold-enrichment relative to that in the control cells without ISO. *P<0.05.
The possibility that Jhdm2a directly regulates Ucp1 expression was subsequently examined. […] The binding was site-specific as Jhdm2a was not detected within the Ucp1 coding region, see FIG. 39, amplicon B).
In addition to removing the repressive H3K9me2 mark at the Ucp1 enhancer, Jhdm2a could contribute to Ucp1 activation by affecting the recruitment of transcription factors and co-activators. To examine this possibility, the effect of the loss of Jhdm2a on the recruitment of transcription factors (PPARγ, Rxrα and Atf2) and co-activators (Pgc1α, CBP/p300 and Src1) was analyzed. […] However, the enhanced binding by PPARγ and Rxra disappeared in the Jhdm2a knock-down cells, see FIG. 41. Similar results were also observed for the co-activators, see FIG. 42. […] Collectively, the data herein indicate that Jhdm2a contributes to β-adrenergic-stimulated Ucp1 activation by maintaining a low level of H3K9me2 at the Ucp1 enhancer region, and by augmenting the recruitment of PPARγ and Rxrα and their co-activators to the Ucp1 enhancer element.

HIB1B cells = assay: qRT-PCR and western blot of Jhdm2a in HIB1B cells after ISO; assay type: cell-based
Procedure: Given that cold-induced Ucp1 upregulation is intact in the PPARα-deficient mice (Kersten, et al., J. Clin. Invest. 103:1489 (1999)), the possibility was explored that Jhdm2a directly regulates Ucp1 expression in response to cold exposure. To ascertain that the effect of Jhdm2a on Ucp1 expression was cell-intrinsic, short-hairpin RNA (shRNA)-mediated was performed in the brown adipose cell line HIB1B using lentivirus-based shRNA. To generate a Jhdm2a knock-down HIB1B cell line, undifferentiated cells were infected with a lentiviral virus expressing a shRNA for Jhdm2a or control. The shRNA sequence for Jhdm2a was 5′-GCAGGTGTCACTAGCCTTAAT-3′ (SEQ ID NO:76). The differentiation of HIB1B cells was performed as previously described (Ross, et al., Proc. Natl. Acad. Sci. USA 89:7561 (1992)). […] Importantly, enforced overexpression of human JHDM2A in the knock-down cells partially rescued Ucp1 expression, see FIG. 36B. […] ISO-induced upregulation of Pgcla was also maintained in HIB1B knock-down cells, see FIG. 38.

NC(=O)c1ncn([C@@H]2O[C@H](CO)[C@@H](O)[C@H]2O)c1N [AICAR]
H3K9me1 and H3K9me2 levels at the PGC-1α promoter (PGC-1α promoter): decreased
respiration (rate of oxygen consumption) (primary myotubes): increased respiration

CC(C)NCC(O)c1ccc(O)c(O)c1 (centres unmarked) [ISO, isoproterenol]
H3K9me2 levels at the Jhdm2a binding site of the Ucp1 enhancer (Ucp1 enhancer): specifically decreased
binding of PPARγ, Rxrα and Atf2 to the Ucp1 enhancer (Ucp1 enhancer): increased
Jhdm2a messenger RNA and protein levels (HIB1B cells): upregulated
